Measurements: paper PMC8400955 (Pharmaceuticals, 2021)

Columns and labels:
CYP2C19 = CYP2C19 (Homo sapiens, UniProt P33261); assay: CYP inhibition in human liver microsomes, CYP2C19; format: in vitro ADME; conditions: HLM, marker substrate Mephenytoin
Method: . The inhibition of CYP2B6 and 3A4 (when midazolam was used as the substrate) by ZB716 was not observed. The inhibitory potential of ZB716 on human CYP enzyme activities appears relatively low.
The final concentrations of ZB716 in the incubation system were 0, 0.05, 0.15, 0.5, 1.5, 5, and 15 µM (final organic solvent concentration ≤ 1%). […] . […] The concentrations of the isoform-specific metabolites derived from marker substrates were measured by UPLC–MS/MS. The IC50 values were calculated from the percentages of the rate of the metabolite formation relative to non-inhibited controls vs. the concentrations of ZB716 or positive control inhibitors. All incubations were performed in triplicate. The mean of the enzyme activity (% of non-inhibited control) for each concentration was plotted against the log inhibitor concentration, and fitted to an IC50 curve.

CYP2B6 = target: T1, CYP2B6 (Homo sapiens, UniProt P20813); assay: CYP phenotyping, recombinant CYP2B6
T1 sequence (P20813 1-491): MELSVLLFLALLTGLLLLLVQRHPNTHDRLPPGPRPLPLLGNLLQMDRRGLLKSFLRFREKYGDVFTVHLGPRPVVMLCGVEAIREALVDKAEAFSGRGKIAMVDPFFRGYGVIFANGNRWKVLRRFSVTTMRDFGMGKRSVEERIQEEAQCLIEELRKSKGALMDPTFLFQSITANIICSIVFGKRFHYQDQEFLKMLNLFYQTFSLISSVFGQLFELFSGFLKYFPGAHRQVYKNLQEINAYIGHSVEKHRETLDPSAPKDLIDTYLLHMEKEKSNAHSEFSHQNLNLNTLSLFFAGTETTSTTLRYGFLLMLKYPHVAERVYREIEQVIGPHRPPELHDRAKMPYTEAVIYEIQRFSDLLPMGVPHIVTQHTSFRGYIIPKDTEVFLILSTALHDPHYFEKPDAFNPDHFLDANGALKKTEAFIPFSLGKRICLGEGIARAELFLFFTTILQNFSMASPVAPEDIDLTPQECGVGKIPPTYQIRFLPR
Method: Bactosomes prepared from E. coli that heterologously expressed individual human CYP isoforms together with human CYP reductase were obtained from CYPEX LTD (Scotland, UK), and stored at −80 °C prior to use. […] Timepoints were taken at 0, 5, 10, 15, 20, and 30 min. Substrate disappearance was used to calculate intrinsic clearance (Clint) and half-life (t1/2). All incubations were performed in triplicate. […] The chemical inhibitors for CYP1A2, 2A6, 2B6, 2C8, 2C9, 2C19, 2D6, and 3A4 were furafylline, tranylcypromine, ticlopidine, montelukast, sulfaphenazole, N-3-benzylnirvanol, quinidine, and ketoconazole, respectively. Timepoints were collected at 0, 15, 30, 45, and 60 min, and the remaining percentage of the parent drug at each timepoint was calculated (the calculation details are available in the Supplementary Materials). All incubations were performed in triplicate.
1.3.1 Intrinsic Clearance (Heterologously Expressed Human Cytochrome P450) All calculations were carried out using Microsoft Excel. The slope, k, was determined by linear regression of the natural logarithm of percent parent disappearance vs. incubation time curve. Peak areas for test article and internal standard were determined from extracted ion chromatograms. The peak area ratio was used to calculated for the results.
The half-life value (t1/2 rCYPi) was determined from the slope value: […]

CYP2C19, sequence (P33261 whole entry): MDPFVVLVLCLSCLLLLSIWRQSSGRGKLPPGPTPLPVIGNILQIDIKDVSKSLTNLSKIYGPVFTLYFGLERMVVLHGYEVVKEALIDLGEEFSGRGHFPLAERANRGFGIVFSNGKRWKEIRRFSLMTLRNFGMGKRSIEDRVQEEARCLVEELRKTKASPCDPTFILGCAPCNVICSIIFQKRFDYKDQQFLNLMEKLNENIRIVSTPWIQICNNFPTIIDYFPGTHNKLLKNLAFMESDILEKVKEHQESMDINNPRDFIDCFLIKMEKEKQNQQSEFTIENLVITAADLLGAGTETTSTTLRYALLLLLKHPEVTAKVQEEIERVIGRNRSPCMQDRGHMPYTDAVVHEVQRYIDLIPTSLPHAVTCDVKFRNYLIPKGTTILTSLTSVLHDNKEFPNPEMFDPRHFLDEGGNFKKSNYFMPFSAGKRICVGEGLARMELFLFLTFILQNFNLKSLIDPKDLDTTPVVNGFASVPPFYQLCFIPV

Molecule `C[C@]12CC[C@@H]3c4ccc(B(O)O)cc4C[C@@H](CCCCCCCCC[S+]([O-])CCCC(F)(F)C(F)(F)F)[C@H]3[C@@H]1CC[C@@H]2O` (stereo partly drawn) [ZB716, fulvestrant-3-boronic acid] has an IC50 (CYP2C19) of 2.2 µM, a half-life at 2 µM (CYP2B6; human) of 41 ± 6.8 min and a Clint (CYP2B6; recombinant CYP2B6, 2 µM ZB716) of 0.343 ± 0.052 µL/min/pmol CYP.
